Reference: PMC4792161, “A novel pyrazole derivative protects from ovariectomy-induced osteoporosis through the inhibition of NADPH oxidase” (Scientific Reports, 2016)
Counter-ions that a name gives are not always drawn. Marks after values point to notes of the source that are not given here.

Legend:
[1] = test system: OVX-induced osteoporotic ddY mice; test: Tibia histopathology-histomorphometry in OVX mice; assay type: in vivo
Mature OCs = test: TUNEL assay, apoptosis of OCs; assay type: cell-based; details: 10 μM, absence or presence of RANKL
Experimental: Apoptotic cells were detected by the […] nick end labeling (TUNEL) assay In Situ Cell Death Detection Kit (Roche Applied Science, Basel, Switzerland) according to the manufacturer’s instructions. […] The percentage of positively stained cells was determined by counting the numbers of TUNEL labeled and DAPI stained cells. The experiments were repeated 3 times, and the mean values were calculated.
Supplementary Figure S5. […] Mature OCs were
generated with M-CSF and RANKL. Cells were washed with PBS and then treated with Ewha-18278
(10 μM) or DMSO with or without RANKL for 20 hours. Cells were subjected into TUNEL assay. Data […]

xanthine oxidase = xanthine oxidase (Bos taurus, UniProt P80457); test: Xanthine oxidase assay (lucigenin); assay type: biochemical
Experimental: Xanthine oxidase activity was measured by lucigenin. Reaction mixtures contained 0.1 mU xanthine oxidase, 0.25 mM Xanthine, and 0.4 mM lucigenin with the indicated inhibitor (0–20 μM). Luminescence measured over 30 min at 37 °C with luminometor (DTX800, Beckman coulter).

[2] = test system: OVX-induced osteoporotic ddY mice; test: Right femur BMD by DEXA in OVX mice; assay type: in vivo; details: oral once daily 28 days
BMMs = test: Phagocytosis assay, FITC-zymosan uptake; assay type: cell-based, C57BL/6 mice; details: pretreated 1 hour
Experimental: After the incubations, cells were washed three times with PBS, and the quantities of internalized fluorescent particles were determined by flow cytometry. FITC-zymosan uptake was quantified as mean fluorescence intensity (MFI).
Supplementary Figure S3. (A) Ewha-18278 compounds can not directly scavenge superoxide or other reactive species in vitro. ROS (H2O2) measured with lucigenin. Reaction mixtures contained 1 […]
Luminescence measured over 30 min at 37
°C with luminometor (Gloma X luminometor, Turner BioSystem). […]
the phagocytosis of zymosan. […]
incubated with FITC-zymosan particles, and internalized fluorescence was measured by flow cytometry. The data are presented as the MFI of internalized FITC. Data represent mean ± S.D. […]

Pre-OCs = test: OC fusion assay; assay type: cell-based, C57BL/6 mice; details: 10 μM, 24 hours
Experimental: Cells were stained for TRAP using a leukocyte acid phosphatase cytochemistry kit (Sigma-Aldrich, St. Louis, MO, USA) according to the manufacturer’s instructions. […]
Scale bar, 500 μm. (C,D) Mature OCs were generated with M-CSF and RANKL, cells were seeded onto dentine discs and further cultured with […]
Cells were stained with hematoxylin for visualization of pit formation (C). The area of resorption pits were measured with Image-Pro Plus 4.5 (D). Scale bar, 500
μm. Data represent mean ± S.D., n.s., not significant. […]

[3] = 2.5 mg/kg oral once daily 28 days
[4] = 5 mg/kg oral once daily 28 days
[5] = 10 mg/kg oral once daily 28 days
[6] = 20 mg/kg oral once daily 28 days

xanthine oxidase, sequence (P80457 2-1332): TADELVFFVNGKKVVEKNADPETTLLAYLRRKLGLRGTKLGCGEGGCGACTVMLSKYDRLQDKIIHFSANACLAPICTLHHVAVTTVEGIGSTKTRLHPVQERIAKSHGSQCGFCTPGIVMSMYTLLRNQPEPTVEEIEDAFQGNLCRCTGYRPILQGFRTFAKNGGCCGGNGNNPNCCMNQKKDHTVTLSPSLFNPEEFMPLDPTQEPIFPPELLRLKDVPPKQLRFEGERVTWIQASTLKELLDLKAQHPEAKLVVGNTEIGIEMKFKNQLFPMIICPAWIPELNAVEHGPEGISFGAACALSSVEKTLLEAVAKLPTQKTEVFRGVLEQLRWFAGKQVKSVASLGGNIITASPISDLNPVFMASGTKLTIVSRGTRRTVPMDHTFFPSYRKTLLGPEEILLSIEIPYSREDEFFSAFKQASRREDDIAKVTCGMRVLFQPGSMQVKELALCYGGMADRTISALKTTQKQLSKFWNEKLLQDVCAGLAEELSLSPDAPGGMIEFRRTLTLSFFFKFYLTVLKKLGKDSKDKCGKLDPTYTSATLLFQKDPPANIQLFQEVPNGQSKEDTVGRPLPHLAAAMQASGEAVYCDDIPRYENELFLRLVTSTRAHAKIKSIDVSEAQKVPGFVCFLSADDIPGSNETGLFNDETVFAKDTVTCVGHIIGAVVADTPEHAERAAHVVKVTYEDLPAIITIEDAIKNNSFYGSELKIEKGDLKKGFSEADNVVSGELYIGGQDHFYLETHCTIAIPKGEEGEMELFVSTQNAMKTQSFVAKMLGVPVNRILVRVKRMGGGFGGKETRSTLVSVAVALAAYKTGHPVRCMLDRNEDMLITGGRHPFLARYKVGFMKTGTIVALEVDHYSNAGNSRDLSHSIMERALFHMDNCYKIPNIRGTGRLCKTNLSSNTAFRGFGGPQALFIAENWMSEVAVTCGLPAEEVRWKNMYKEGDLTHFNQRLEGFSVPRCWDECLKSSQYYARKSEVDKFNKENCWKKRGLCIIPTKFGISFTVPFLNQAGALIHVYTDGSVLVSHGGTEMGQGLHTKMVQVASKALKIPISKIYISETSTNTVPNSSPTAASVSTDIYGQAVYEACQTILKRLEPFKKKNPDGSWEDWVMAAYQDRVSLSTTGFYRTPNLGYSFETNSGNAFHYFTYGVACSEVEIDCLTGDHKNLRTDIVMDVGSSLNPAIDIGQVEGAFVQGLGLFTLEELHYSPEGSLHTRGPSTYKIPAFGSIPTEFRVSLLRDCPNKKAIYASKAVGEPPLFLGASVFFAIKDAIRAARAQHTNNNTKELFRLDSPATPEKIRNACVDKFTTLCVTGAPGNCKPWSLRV

## CCCc1c(-c2ccccc2)nn(-c2ccccn2)c1O [Ewha-18278, 3-phenyl-1-(pyridin-2-yl)-4-propyl-1H-5-hydroxypyrazole HCl]
[1]; [3]
  BV/TV (trabecular bone volume): 19.04 ± 3.10 ^a %
  Ct.Th (cortical bone thickness): 122.04 ± 11.96 ^a μm
  N.OC/BS (osteoclast cell number, N/epiphyseal): 14.13 ± 3.44 ^a numbers
  Tb.N (trabecular bone number, N/epiphyseal): 8.63 ± 1.60 ^a numbers
  Tb.Th (trabecular bone thickness): 34.89 ± 5.16 ^a μm
[1]; [4]
  BV/TV (trabecular bone volume): 29.39 ± 2.41 ^bc %
  Ct.Th (cortical bone thickness): 137.51 ± 10.96 ^ac μm
  Tb.N (trabecular bone number, N/epiphyseal): 12.50 ± 1.31 ^ac numbers
  Tb.Th (trabecular bone thickness): 48.34 ± 6.87 ^ac μm
[1]; [5]
  BV/TV (trabecular bone volume): 33.36 ± 4.35 ^c %
  Ct.Th (cortical bone thickness): 182.11 ± 12.48 ^c μm
  N.OC/BS (osteoclast cell number, N/epiphyseal): 8.13 ± 2.23 ^ac numbers
  Tb.N (trabecular bone number, N/epiphyseal): 15.00 ± 2.00 ^ac numbers
  Tb.Th (trabecular bone thickness): 53.36 ± 5.94 ^ac μm
[1]; [6]
  BV/TV (trabecular bone volume): 33.78 ± 3.47 ^c %
  Ct.Th (cortical bone thickness): 194.28 ± 15.50 ^c μm
  N.OC/BS (osteoclast cell number, N/epiphyseal): 6.88 ± 2.36 ^ac numbers
  Tb.N (trabecular bone number, N/epiphyseal): 17.13 ± 1.81 ^c numbers
  Tb.Th (trabecular bone thickness): 55.98 ± 7.15 ^ac μm
Mature OCs
  apoptosis of OCs: had no effect on apoptosis
Xanthine oxidase
  inhibitory activity on xanthine oxidase: no inhibitory activities
[2]
  BMD of femur compared to OVX control: dramatic increased BMD
BMMs
  phagocytosis of FITC-zymosan (MFI) vs DMSO: n.s.
Pre-OCs
  fusion of OCs: did not affect
